Data set [1] can be described thus: Cytotoxic activity against human HeLa cells assessed as cell viability at 10 ug/ml incubated for 24 hrs by MTT assay. The settings on record: read-out: Activity. The class given is cell-based. (Tetrazolium assays rely on reduction of a dye to a coloured formazan, in cell work by metabolically active cells.)
The test system of data set [2] is Plasmodium falciparum. Briefly: Antimalarial activity against CQ-sensitive Plasmodium falciparum 3D7 cultivated in human type O+ red blood cells assessed as reduction in parasite infection incubated for 48 hrs by microscopy. The class given is functional, organism-based. Conditions: 3D7, 48 h.
Data set [3] can be described thus: Cytotoxic activity against human HeLa cells assessed as cell viability at 100 ug/ml incubated for 24 hrs by MTT assay. Format: cell-based. The settings on record: read-out: Activity.
Data set [4] can be described thus: Selectivity index, ratio of CC50 for human HeLa cells to IC50 for CQ-sensitive Plasmodium falciparum 3D7. The class given is functional.
A short description of data set [5]: Cytotoxic activity against human HeLa cells assessed as cell viability at 0.1 ug/ml incubated for 24 hrs by MTT assay. Format: cell-based. Conditions: read-out: Activity.
Data set [6] is described as follows: Cytotoxic activity against human HeLa cells assessed as cell viability at 1 ug/ml incubated for 24 hrs by MTT assay. The class given is cell-based. The settings on record: read-out: Activity.
The nature of data set [7]: Cytotoxic activity against human HeLa cells assessed as reduction in cell viability incubated for 24 hrs by MTT assay. Format: cell-based.
A short description of data set [8]: Cytotoxic activity against human HeLa cells assessed as cell viability at 1000 ug/ml incubated for 24 hrs by MTT assay. The class given is cell-based. Conditions: read-out: Activity.
Data set [9] is described as follows: Selectivity index, ratio of CC50 for human HepG2 cells to IC50 for CQ-sensitive Plasmodium falciparum 3D7. Format: functional.
Data set [10] can be described thus: Cytotoxic activity against human HepG2 cells assessed as cell viability at 1000 ug/ml incubated for 24 hrs by MTT assay. The class given is cell-based. The settings on record: read-out: Activity.
Data set [11] is described as follows: Cytotoxic activity against human HepG2 cells assessed as cell viability at 0.1 ug/ml incubated for 24 hrs by MTT assay. Format: cell-based. Conditions: read-out: Activity.
Data set [12] can be described thus: Cytotoxic activity against human HepG2 cells assessed as cell viability at 10 ug/ml incubated for 24 hrs by MTT assay. Format: cell-based. Conditions: read-out: Activity.
The nature of data set [13]: Cytotoxic activity against human HepG2 cells assessed as cell viability at 1 ug/ml incubated for 24 hrs by MTT assay. Format: cell-based. Conditions: read-out: Activity.
Data set [14] in a line: Cytotoxic activity against human HepG2 cells assessed as reduction in cell viability incubated for 24 hrs by MTT assay. Format: cell-based.
The nature of data set [15]: Cytotoxic activity against human HepG2 cells assessed as cell viability at 100 ug/ml incubated for 24 hrs by MTT assay. Conditions: read-out: Activity. Format: cell-based.
Data set [16] deals with Plasmodium falciparum. Briefly: Antimalarial activity against CQ-resistant Plasmodium falciparum W2 cultivated in human type O+ red blood cells assessed as reduction in parasite infection incubated for 48 hrs by microscopy. Format: functional, organism-based. The settings on record: W2, 48 h.
Data set [17] deals with Plasmodium berghei. Briefly: Antimalarial activity against Plasmodium berghei NK65 infected in Swiss albino mouse assessed as inhibition of parasitemia at 10 mg/kg, po dosed for four consecutive days beginning on first day of infection and measured on day 12 post infection relative to untreated control. Format: functional. The settings on record: NK65, 288 h.
The test system of data set [18] is Plasmodium berghei. Briefly: Antimalarial activity against Plasmodium berghei NK65 infected in Swiss albino mouse assessed as inhibition of parasitemia at 10 mg/kg, po dosed for four consecutive days beginning on first day of infection and measured on day 7 post infection relative to untreated control. The class given is functional. The settings on record: NK65, 168 h.

Data set [19] concerns Plasmodium berghei. The experiment in a line: Antimalarial activity against Plasmodium berghei NK65 infected in Swiss albino mouse assessed as parasitemia level at 10 mg/kg, po dosed for four consecutive days beginning on first day of infection and measured on day 7 post infection (reference value: 5.42 +/- 0.79%). Format: functional.
Data set [20] relates to Mus musculus. Briefly: Toxicity in Plasmodium berghei NK65 infected Swiss albino mouse assessed as mouse mortality at 10 mg/kg, po dosed for four consecutive days beginning on first day of infection and measured on day 7 post infection relative to untreated control. The class given is organism-based. Details: dose 10 mg/kg, route oral. The settings on record: in vivo.
The subject of data set [21] is Mus musculus. Briefly: Toxicity in Plasmodium berghei NK65 infected Swiss albino mouse assessed as mouse survival at 10 mg/kg, po dosed for four consecutive days beginning on first day of infection and measured on day 12 post infection relative to untreated control. Format: organism-based. On the set-up: dose 10 mg/kg, route oral. The settings on record: in vivo.

For data set [22], the system named is Mus musculus. The experiment in a line: Toxicity in Plasmodium berghei NK65 infected Swiss albino mouse assessed as mouse mortality at 10 mg/kg, po dosed for four consecutive days beginning on first day of infection and measured on day 12 post infection relative to untreated control. On the set-up: dose 10 mg/kg, route oral. Format: organism-based. The settings on record: in vivo.

In data set [23] the test system is Plasmodium berghei. Briefly: Antimalarial activity against Plasmodium berghei NK65 infected in Swiss albino mouse assessed as parasitemia level at 10 mg/kg, po dosed for four consecutive days beginning on first day of infection and measured on day 12 post infection (reference value: 8.81 +/- 1.17%). Format: functional.
Data set [24] has as its system Mus musculus. The experiment in a line: Toxicity in Plasmodium berghei NK65 infected Swiss albino mouse assessed as mouse survival at 10 mg/kg, po dosed for four consecutive days beginning on first day of infection and measured on day 7 post infection relative to untreated control. The class given is organism-based. The settings on record: in vivo. On the set-up: dose 10 mg/kg, route oral.

≈ marks a conversion by molar mass, not a printed value.

For `NNC(=O)c1cccnc1` [NICOTINIC ACID HYDRAZIDE], in [1], the viability at 24 h, 10 ug/ml worked out at 92%. The IC50 in data set [2] is more than 50 µg/mL. In data set [3], the viability at 24 h, 100 ug/ml is 58%. Further, in [4], the “Ratio CC50/IC50” value was less than 3.06. The viability at 24 h, 0.1 ug/ml in data set [5] stood at 88%. For the same molecule, in data set [6], the viability at 24 h, 1 ug/ml is 87%. Further, the half-maximal cytotoxic concentration (CC50) at 24 h in data set [7] was determined as 153 µg/mL (≈ 1120 µM). Also, the viability at 24 h, 1000 ug/ml in data set [8] is 25%.

As for `NS(=O)(=O)c1ccc(Nc2ccnc3cc(Cl)ccc23)cc1`, the “Ratio CC50/IC50” value was determined as 112 in [9] and 364 in data set [4]. Moreover, the viability at 24 h, 10 ug/ml in [1] was 100%; in [12], 85%. Also, the viability at 24 h, 1000 ug/ml in [10] was 43%; in data set [8], 37%. Moreover, in [2], the IC50 stood at 2.18 µg/mL (≈ 6.53 µM). In addition, the values for the viability at 24 h, 100 ug/ml in [3] and in [15] were 91% and 65%, respectively. Moreover, the viability at 24 h, 0.1 ug/ml in [11] and in [5] was 93% in each case. The viability at 24 h, 1 ug/ml in data set [6] is 95%; in [13], 94%. Moreover, the CC50 at 24 h in data set [14] came out at 234 µg/mL (≈ 701 µM); in [7], 793 µg/mL (≈ 2380 µM).

On to `C[C@H]1[C@H](OC(=O)CCC(=O)O)O[C@@H]2O[C@@]3(C)CC[C@H]4[C@H](C)CC[C@@H]1[C@@]24OO3` [ARTESUNATE], for which the IC50 in [16] was less than 0.39 µg/mL.

In the case of `O=S(=O)(Nc1nccs1)c1ccc(Nc2ccnc3cc(Cl)ccc23)cc1`, the viability at 24 h, 10 ug/ml in data set [1] is 60%. The IC50 in data set [2] stood at 5.97 µg/mL (≈ 14.3 µM). Besides, the viability at 24 h, 100 ug/ml in data set [3] was 65%. The “Ratio CC50/IC50” value in data set [4] is 56. Moreover, the viability at 24 h, 0.1 ug/ml in [5] stood at 74%. The viability at 24 h, 1 ug/ml in data set [6] came to 71%. Further, in data set [7], the CC50 at 24 h is 334 µg/mL (≈ 801 µM). The viability at 24 h, 1000 ug/ml in [8] stood at 12%.

Turning to `CCN(CC)CCCC(C)Nc1ccnc2cc(Cl)ccc12` (centres undefined) [CHLOROQUINE], the values for the inhibition in vivo at 10 mg/kg in data set [17] and in data set [18] were 82% and 68%, respectively. The “Ratio CC50/IC50” value in [9] and in data set [4] was more than 1000 in each case. The viability at 24 h, 10 ug/ml in data set [1] amounted to 97%; in data set [12], 92%. Also, the viability at 24 h, 1000 ug/ml came to 60% in data set [10] and 92% in data set [8]. The Activity in [19] is 1.72%; in [20] it was “Non-toxic”; in data set [21], “Non-toxic”; in [22], “Non-toxic”; in data set [23] it was 1.55%; in data set [24], “Non-toxic”. The results for the IC50 in data set [2] and in data set [16] were less than 0.19 µg/mL and less than 0.39 µg/mL, respectively. For the same molecule, the viability at 24 h, 100 ug/ml in data set [3] was 100%; in data set [15], 67%. Besides, the viability at 24 h, 0.1 ug/ml in data set [11] turned out to be 93%; in [5] it was 98%. The viability at 24 h, 1 ug/ml was 94% in [6] and 97% in data set [13]. The CC50 at 24 h in [14] and in data set [7] was more than 1000 µg/mL in each case.

As for `O=S(=O)(Nc1ccccn1)c1ccc(Nc2ccnc3cc(Cl)ccc23)cc1`, the “Ratio CC50/IC50” value in data set [9] was found to be 69; in data set [4], 31. Further, the viability at 24 h, 10 ug/ml in [1] was 68%; in [12] it was 86%. Further, the viability at 24 h, 1000 ug/ml in data set [10] turned out to be 48%; in [8], 11%. For the same molecule, the IC50 in data set [2] was found to be 3.64 µg/mL (≈ 8.86 µM). The viability at 24 h, 100 ug/ml in data set [3] amounted to 53%; in data set [15] it was 57%. Further, the viability at 24 h, 0.1 ug/ml was found to be 92% in data set [11] and 82% in [5]. Besides, the viability at 24 h, 1 ug/ml came to 78% in data set [6] and 97% in [13]. Also, the CC50 at 24 h in data set [14] came out at 252 µg/mL (≈ 613 µM); in data set [7], 113 µg/mL (≈ 275 µM).

With `O=S(=O)(Nc1ncccn1)c1ccc(Nc2ccnc3cc(Cl)ccc23)cc1`, the “Ratio CC50/IC50” value in data set [9] is recorded as more than 61; in data set [4], 30. Further, the viability at 24 h, 10 ug/ml in data set [1] is 76%; in data set [12], 89%. The figures for the viability at 24 h, 1000 ug/ml in data set [10] and in [8] were 68% and 22%, respectively. Besides, the IC50 in data set [2] came to 16.3 µg/mL (≈ 39.6 µM). Besides, the viability at 24 h, 100 ug/ml in data set [3] and in data set [15] was 75% throughout. The viability at 24 h, 0.1 ug/ml in [11] and in [5] was 85% throughout. Moreover, the viability at 24 h, 1 ug/ml in data set [6] was determined as 82%; in data set [13], 90%. Also, the results for the CC50 at 24 h in data set [14] and in data set [7] were more than 1000 µg/mL and 494 µg/mL (≈ 1200 µM), respectively.

On to `Cc1cc(NS(=O)(=O)c2ccc(Nc3ccnc4cc(Cl)ccc34)cc2)no1`, for which, in [1], the viability at 24 h, 10 ug/ml amounted to 59%. Moreover, the IC50 in [2] is 23.8 µg/mL (≈ 57.5 µM). In [3], the viability at 24 h, 100 ug/ml was determined as 61%. In addition, the “Ratio CC50/IC50” value in data set [4] worked out at 12. Moreover, the viability at 24 h, 0.1 ug/ml in data set [5] came to 67%. Besides, in data set [6], the viability at 24 h, 1 ug/ml is 72%. The CC50 at 24 h in [7] is 290 µg/mL (≈ 699 µM). Also, the viability at 24 h, 1000 ug/ml in data set [8] turned out to be 17%.

The IC50 is the concentration needed to halve the response being measured. By CC50 is commonly meant the concentration that lowers cell viability or growth by half. As usually defined, the inhibition in vivo is the drop in the measured response relative to a control, in per cent.

These data come from ChEMBL document CHEMBL3421546 (Bioorg Med Chem Lett, 2015).
